Laboratory results taken from patent US20160223559A1, “TETRAZINE-CONTAINING COMPOUNDS AND SYNTHETIC METHODS THEREOF” (The Regents of the University of California, priority 2015, published 2016).
One block for each compound: values may come before it.

Experiments:
[1] = Solubility in DMF:PBS during kinetic measurement; assay type: physicochemical; conditions: DMF:PBS at DMF concentrations lower than 80%
Experimental: FIGS. 3A-3B. (E)-3-substituted-6-styryl-s-tetrazine reaction kinetics. FIG. 3A: Reaction scheme of (E)-cyclooct-4-enol and the series of tetrazines for kinetic characterization. Only one isomer is depicted for 15. FIG. 3B: Tetrazine kinetics were determined by reacting 1 mM tetrazine with an excess (10 mM) of (E)-cyclooct-4-enol in 50% DMF, 50% PBS 1×pH 7.4 buffer at 22° C. Second-order rate constants derived from the data are listed, and the corresponding curves for 2b, 2p, and 11 are shown in FIG. 4A. Tetrazine 2p was reacted in 80% DMF, 20% PBS due to its insolubility at lower DMF concentrations.
A NANODROP™ 2000c (Thermo Scientific) equipped with a cuvette reader and a stirrer was used in the kinetic measurements, and the disappearance of the tetrazine peak absorption around 520 nm was measured over time. Tetrazines at 1 mM were reacted with an excess 10 mM (E)-cyclooct-4-enol with the measurements commencing immediately upon (E)-cyclooct-4-enol addition (FIGS. 3A, 4A-4B). Solution conditions were maintained at 1:1 DMF:PBS pH 7.4 buffer (Sigma Life Science), and all the measurements were done at 22° C. room temperature. Tetrazine peak intensity at each time point was adjusted for background by extrapolation, as in the previous section. Tetrazine peak disappearance is shown as points in FIGS. 4A-4B, with the connecting lines resulting from the nonlinear fits made with Prism 6.0c. […]

[2] = Storage and solution stability; assay type: physicochemical; conditions: stored at −20° C. for several months
[3] = Fluorescence assays: fluorogenic turn-on reaction with dienophiles; assay type: physicochemical; conditions: PBS pH 7.4, excitation at 480 nm
Experimental: All compounds were purified by HPLC and verified by LC-MS prior to quantitative activation experiments. Stock solutions in methanol were diluted into 1.5 mL of the appropriate solvent in a 1 cm×1 cm quartz cuvette. Measurements of solvent and pre-activation emission spectra for baseline values were made in at least triplicate, prior to addition of trans-cyclooctenol or cyclopropene 4 to initiate the fluorogenic reaction. 3-fold additional excess of trans-cyclooctenol and cyclopropene 4 were added for each fluorogenic reaction. Activation ratios were calculated from the peak emission intensity of the reaction product and the corresponding baseline intensity, and all the intensity data was background subtracted. Integration of the area under the emission intensity curves was used to validate the activation ratios.
Fluorescence emission of 2v, 5, 6 are depicted in FIG. 1A. All three compounds were dissolved in 2 μM phosphate-buffered saline (PBS) at pH 7.4. FIG. 5A depicts fluorescence emission of 2v in 2 μM phosphate-buffered saline (PBS) at pH 7.4. FIG. 5B depicts fluorescence emission of 2w, 7, 8. All three compounds were dissolved in 2 μM EtOH solution. […] FIG. 5C depicts fluorescence emission of 2w in 2 μM EtOH solution. FIG. 5D depicts fluorescence emission of 2x, 9, 10. […] FIG. 5E depicts fluorescence emission of 2x in 2 μM EtOH solution.

[4] = test system: A33 antigens on live LS174T human colon carcinoma cells; experiment: Live-cell imaging of TCO-antibody pretargeted cells; assay type: cell-based; conditions: 5 μM probe, 30 minutes
Experimental: FIGS 1A-1D. Depicted in FIG. 1A are fluorescence emission spectra for compound 2v (lowest line) and compound 5 (middle line) and 6 (upper line) in PBS; excitation at 480 nm. FIG. 1B: Figure depicts equimolar solutions of compound 6 and 2v under excitation by a handheld UV lamp. FIGS. 1C-1D: Figures depict Live-cell imaging of LS174T cells. FIG. 1C: Cells were incubated (t=1 h) with 200 nM TCO-conjugated A33 antibodies, washed, and then imaged 30 minutes after the addition of 5 μM 2v. FIG. 1D: Cells lacking TCO were treated with 5 μM 2v for 30 minutes. Scale bar=[…] for both FIGS. 1C and 1D.
Cell culture and labeling. LS174T cells were grown in DMEM media supplemented with 10% fetal bovine serum, 1% L-glutamine, 1% penicillin/streptomycin. Cells were incubated in 5.0% carbon dioxide, 95% humidity at 37° C. The cells were grown in a T-75 tissue culture flask and seeded on a Lab-Tek II chamber slide two days prior to the experiment. A33 antibody (R&D Systems, MN) was modified by incubation with 50 equivalents of trans-cyclooctene NHS ester for 2 hours at room temperature. The A33 antibody was washed three times with 0.1M sodium bicarbonate buffer pH 8.3 using a 30 kDa spin filter before adding the antibody to the cells at a final concentration of 200 nM for 1 hour.
Image acquisition. […]

solubility [1]: insolubility
SMILES: C(=C\c1nnc(/C=C/c2ccccc2)nn1)/c1ccccc1 [Cmpd 2p]

storage stability [2]: without noticeable decomposition
SMILES: Cc1nnc(CCOS(C)(=O)=O)nn1 [Cmpd 1a]

SMILES: Cc1nnc(/C=C/c2ccc(C(=O)O)c(-c3c4cc(F)c(=O)cc-4oc4cc(O)c(F)cc34)c2)nn1 [Cmpd 2v]
increase in fluorescence intensity (turn-on) ([3]; after reaction with a TCO): 400 fold | increase in fluorescence intensity (turn-on) ([3]; after reaction with a cyclopropene): 135 fold | background staining ([4]; cells lacking targeted dienophile): negligible background staining | confocal imaging of targeted dienophiles ([4]; cells pretargeted with 200 nM TCO-conjugated A33 antibodies): readily revealed the location of targeted dienophiles
